Data taken from article PMC9560598 (PLoS Pathogens, 2022).
Several values for one entry are separate records, joined by “and”; a condition that tells them apart may be missing. Equal entries are not always repeated. Where two headings read alike, the source gives them in different places. Bridge positions count the residues as written; N and C are the ends. Ends that are not written are not given here. Peptide text beside a SMILES is read from it.

Tests used:
[1] = test system: encapsulated WT B. anthracis Ames bacilli; settings: for killing: encapsulated WT Ames bacilli, 2 h
[2] = test system: non-encapsulated Sterne strain of B. anthracis; settings: cited from earlier work
[3] = test system: encapsulated killed WT B. anthracis bacilli; assay type: cell-based, Bacillus anthracis
[4] = test system: encapsulated WT B. anthracis Ames bacilli; assay type: cell-based, Bacillus anthracis
[5] = assay type: binding, Bacillus anthracis; settings: n = 3

| Compound | Concentrations at which bactericidal activity (significant killing) was observed [1] [µg/mL] | % of 0 μg/ml Control, Mean [1] | killing ([1]; 20 μg/ml) [%] | Killing of the non-encapsulated Sterne strain [2] | Binding to purified capsule (shift in electrophoretic mobility towards the cathode) [5] | further results |
| --- | --- | --- | --- | --- | --- | --- |
| Melittin | 0.1 to 100 |  |  |  |  |  |
| Nisin | 0.1 to 100 |  |  |  |  |  |
| CC[C@H](C)[C@@H]1NC(=O)[C@H](CCCCN)NC(=O)[C@H]([C@@H](C)O)NC(=O)[C@H](Cc2ccccc2)NC(=O)[C@H]([C@@H](C)CC)NC(=O)[C@@H]2CCCN2C(=O)[C@@H]2CSSC[C@@H](C(=O)N[C@@H](CCCCN)C(=O)O)NC(=O)[C@@H]3CSSC[C@H](NC(=O)[C@H](CC(N)=O)NC(=O)[C@H](Cc4ccc(O)cc4)NC(=O)[C@H](Cc4c[nH]cn4)NC(=O)[C@@H](N)CC(=O)O)C(=O)N[C@@H](C(C)C)C(=O)N[C@@H](CO)C(=O)N[C@@H](CO)C(=O)NCC(=O)NCC(=O)N[C@@H](CCC(N)=O)C(=O)N[C@@H](CSSC[C@H](NC(=O)[C@H]([C@@H](C)O)NC(=O)CNC(=O)[C@H](CCC(N)=O)NC1=O)C(=O)N[C@@H](Cc1ccc(O)cc1)C(=O)N[C@@H](CCCNC(=N)N)C(=O)NCC(=O)N[C@@H](CCCCN)C(=O)N[C@@H](C)C(=O)N[C@@H](CCCCN)C(=O)N3)C(=O)N[C@@H](CC(C)C)C(=O)N[C@@H](Cc1ccc(O)cc1)C(=O)N[C@@H](CO)C(=O)N[C@@H](C)C(=O)N2 [HBD-1] (H-DHYNCVSSGGQCLYSACPIFTKIQGTCYRGKAKCCK-OH; disulfide 5-34, 12-27, 17-35 (inferred); N-terminus and C-terminus assumed) |  | 59.1% | 41 | could not |  |  |
| Polymyxin B | 1 to 100 |  |  |  |  |  |
| GIINTLQKYYCRVRGGRCAVLSCLPKEEQIGKCSTRGRKCCRRKK (disulfide 11-40, 18-33, 23-41 (inferred)) [HBD-3] | 0.2 to 20 |  | 71 | could kill | bound to capsule | % reduction of MFI [3]: 29.6639% and 31.2268% and 35.1463% and 34.7672%; % reduction of MFI, avg [3]: 32.7011%; mean fluorescence intensity (MFI) [3]: 706.28 and 766.2 and 635.97 and 635.34 and 496.77 and 526.94 and 412.45 and 414.45; mean fluorescence intensity (MFI), avg [3]: 685.947 and 462.653; killing ([1]; 0.2 μg/ml): 58%; Localisation of HBD-3 on bacilli [4]: only on the outer surface of the capsule |
| GIGDPVTCLKSGAICHPVFCPRRYKQIGTCGLPGTKCCKKP (disulfide 8-37, 15-30, 20-38 (inferred)) [HBD-2] |  | 34.5% and 26.0% | 65 | could not | bound to capsule | Bactericidal activity against the Sterne strain [2]: modest bactericidal activity |
